Test results as given in patent US4259235A, “Tricyclic nitrogenous compounds having string plant growth regulating properties” (BASF Aktiengesellschaft, priority 1977, dated 1981).

Tests used:
spring wheat [1] = assay: Growth height of spring wheat, soil (preemergence) treatment, Example 9; type: in vivo, spring wheat ("Opal" variety); details: 30 days
Protocol: (§1) Spring wheat of the "Opal" variety and spring barley of the "Union" variety were grown in the winter half of the year under greenhouse conditions in plastic dishes 11.5 cm in diameter, in a peat substrate provided with sufficient nutrients.
(§2) The reductions in growth height caused by the treatment were determined by measuring the height of the plants at the end of the experiment after 30 days' growth, and comparing it with that of untreated plants.

spring barley [2] = assay: Growth height of spring barley, soil (preemergence) treatment, Example 9; type: in vivo, spring barley ("Union" variety); details: 30 days
Protocol: as §1, §2

spring wheat [3] = assay: Growth height of spring wheat, leaf treatment, Example 11; type: in vivo, spring wheat ("Opal" variety)
Protocol: (§3) The test plants--spring wheat ("Opal" variety), spring barley ("Union" variety) and spring rye ("Petkuser" variety)--were grown under greenhouse conditions in plastic dishes 11.5 cm in diameter, in a peat substrate provided with sufficient nutrients.
(§4) Leaf treatment was effected by spraying the plants at a growth height of 11 cm with aqueous formulations of the active ingredients, at three application rates.
(§5) The shortening effect caused by the compounds was shown by measurements of the height of the plants at the end of the experiment.
(§6) The prior art compound N,N,N-trimethyl-N-β-chloroethylammonium chloride (CCC, German Printed Application DAS No. 1,294,734) was used for comparison purposes.

spring barley [4] = assay: Growth height of spring barley, soil treatment, Example 11; type: in vivo, spring barley ("Union" variety)
Protocol: as §3
(§7) The soil (preemergence) treatment was effected after sowing by pouring aqueous formulations of the active ingredients, at four application rates, onto the surface of the substrate.
as §5, §6

spring barley [5] = assay: Growth height of spring barley, leaf treatment, Example 11; type: in vivo, spring barley ("Union" variety)
Protocol: as §3, §4, §5, §6

spring rye [6] = assay: Growth height of spring rye, soil treatment, Example 11; type: in vivo, spring rye ("Petkuser" variety)
Protocol: as §3, §7, §5, §6

spring rye [7] = assay: Growth height of spring rye, leaf treatment, Example 11; type: in vivo, spring rye ("Petkuser" variety)
Protocol: as §3, §4, §5, §6

How did the Plant height (spring wheat [1]; 3 kg/ha) turn out when `C1C2C3N=NC3C1C1OC21` (centres unmarked) [drawing 388] was run?
Its Plant height is 21.5 cm.

What about the “Plant height, % of untreated control” value (spring wheat [1]; 3 kg/ha) of the same molecule?
Its value is 71.7%.

And the Plant height (spring wheat [1]; 12 kg/ha)?
The Plant height was 12.5 cm.

What about the “Plant height, % of untreated control” value (spring wheat [1]; 12 kg/ha) of the same molecule?
The value was 41.7%.

Which Plant height (spring wheat [1]; 3 kg/ha) does the source give for `c1ccc(C2=NOC3C4CC(C5N=NC45)C23)cc1` (centres unmarked) [drawing 389] here?
Its Plant height is 20.0 cm.

What about the “Plant height, % of untreated control” value (spring wheat [1]; 3 kg/ha) of the same molecule?
Its value is 66.7%.

And the Plant height (spring wheat [1]; 12 kg/ha)?
Its Plant height is 14.0 cm.

What about the “Plant height, % of untreated control” value (spring wheat [1]; 12 kg/ha) of the same molecule?
The value was 46.7%.

With `C1C2C3N=NC3C1C1OC21` (centres unmarked) [drawing 390] as the molecule, how does the Plant height (spring barley [2]; 3 kg/ha) read?
Its Plant height is 25.0 cm.

And the “Plant height, % of untreated control” value (spring barley [2]; 3 kg/ha)?
The value was 77.4%.

And the Plant height (spring barley [2]; 12 kg/ha)?
The Plant height was 14.0 cm.

What about the “Plant height, % of untreated control” value (spring barley [2]; 12 kg/ha) of the same molecule?
The value was 43.3%.

For `c1ccc(C2=NOC3C4CC(C5N=NC45)C23)cc1` (centres unmarked) [drawing 391], which Plant height (spring barley [2]; 3 kg/ha) is on record?
The Plant height was 24.5 cm.

What about the “Plant height, % of untreated control” value (spring barley [2]; 3 kg/ha) of the same molecule?
The value was 75.9%.

What about the Plant height (spring barley [2]; 12 kg/ha) of the same molecule?
The Plant height was 16.0 cm.

And the “Plant height, % of untreated control” value (spring barley [2]; 12 kg/ha)?
Its value is 49.5%.

Which results are given for `c1ccc(C2=NNC3C4CC(C5N=NC45)C23)cc1` (centres unmarked) [drawing 416]?
Plant height (spring wheat [3]; 0.75 kg/ha): 26.5 cm; Plant height, % of untreated control (spring wheat [3]; 0.75 kg/ha): 86.0%; Plant height (spring wheat [3]; 1.50 kg/ha): 25.5 cm; Plant height, % of untreated control (spring wheat [3]; 1.50 kg/ha): 82.8%; Plant height (spring wheat [3]; 3.00 kg/ha): 24.0 cm; Plant height, % of untreated control (spring wheat [3]; 3.00 kg/ha): 77.9%

How did the Plant height (spring barley [4]; 0.75 kg/ha) turn out when `c1ccc(C2=NNC3C4CC(C5N=NC45)C23)cc1` (centres unmarked) [drawing 417] was run?
Its Plant height is 32.0 cm.

And the “Plant height, % of untreated control” value (spring barley [4]; 0.75 kg/ha)?
Its value is 97.6%.

And the Plant height (spring barley [4]; 1.50 kg/ha)?
The Plant height was 28.0 cm.

And the “Plant height, % of untreated control” value (spring barley [4]; 1.50 kg/ha)?
The value was 85.4%.

What about the Plant height (spring barley [4]; 3.00 kg/ha) of the same molecule?
The Plant height was 27.0 cm.

And the “Plant height, % of untreated control” value (spring barley [4]; 3.00 kg/ha)?
Its value is 82.3%.

And the Plant height (spring barley [4]; 6.00 kg/ha)?
The Plant height was 23.0 cm.

And the “Plant height, % of untreated control” value (spring barley [4]; 6.00 kg/ha)?
Its value is 70.1%.

For `c1ccc(C2N=NC3C4CC(C5N=NC45)C23)cc1` (centres unmarked) [drawing 418], which Plant height (spring barley [5]; 0.75 kg/ha) is on record?
The Plant height was 23.5 cm.

What about the “Plant height, % of untreated control” value (spring barley [5]; 0.75 kg/ha) of the same molecule?
The value was 84.5%.

What about the Plant height (spring barley [5]; 1.50 kg/ha) of the same molecule?
The Plant height was 23.0 cm.

What about the “Plant height, % of untreated control” value (spring barley [5]; 1.50 kg/ha) of the same molecule?
The value was 82.7%.

What about the Plant height (spring barley [5]; 3.00 kg/ha) of the same molecule?
Its Plant height is 21.5 cm.

And the “Plant height, % of untreated control” value (spring barley [5]; 3.00 kg/ha)?
Its value is 77.3%.

Which Plant height (spring barley [5]; 0.75 kg/ha) does the source give for `Clc1ccc(NC2C(Cl)C3CC2C2N=NC32)cc1` (centres unmarked) [drawing 419] here?
The Plant height was 26.0 cm.

What about the “Plant height, % of untreated control” value (spring barley [5]; 0.75 kg/ha) of the same molecule?
The value was 93.5%.

What about the Plant height (spring barley [5]; 1.50 kg/ha) of the same molecule?
The Plant height was 25.5 cm.

What about the “Plant height, % of untreated control” value (spring barley [5]; 1.50 kg/ha) of the same molecule?
The value was 91.7%.

And the Plant height (spring barley [5]; 3.00 kg/ha)?
The Plant height was 23.5 cm.

And the “Plant height, % of untreated control” value (spring barley [5]; 3.00 kg/ha)?
Its value is 84.5%.

`Clc1ccc(NC2C(Cl)C3CC2C2N=NC32)cc1` (centres unmarked) [drawing 421] was tested. Which Plant height (spring rye [6]; 0.75 kg/ha) did it give?
Its Plant height is 28.0 cm.

What about the “Plant height, % of untreated control” value (spring rye [6]; 0.75 kg/ha) of the same molecule?
The value was 86.7%.

And the Plant height (spring rye [6]; 1.50 kg/ha)?
Its Plant height is 27.0 cm.

And the “Plant height, % of untreated control” value (spring rye [6]; 1.50 kg/ha)?
Its value is 83.5%.

What about the Plant height (spring rye [6]; 3.00 kg/ha) of the same molecule?
Its Plant height is 25.0 cm.

And the “Plant height, % of untreated control” value (spring rye [6]; 3.00 kg/ha)?
The value was 77.4%.

And the Plant height (spring rye [6]; 6.00 kg/ha)?
Its Plant height is 23.0 cm.

And the “Plant height, % of untreated control” value (spring rye [6]; 6.00 kg/ha)?
Its value is 71.2%.

How did the Plant height (spring rye [7]; 0.75 kg/ha) turn out when `c1ccc(C2N=NC3C4CC(C5N=NC45)C23)cc1` (centres unmarked) [drawing 422] was run?
Its Plant height is 23.0 cm.

What about the “Plant height, % of untreated control” value (spring rye [7]; 0.75 kg/ha) of the same molecule?
Its value is 80.7%.

And the Plant height (spring rye [7]; 1.50 kg/ha)?
The Plant height was 20.5 cm.

What about the “Plant height, % of untreated control” value (spring rye [7]; 1.50 kg/ha) of the same molecule?
The value was 71.9%.

And the Plant height (spring rye [7]; 3.00 kg/ha)?
Its Plant height is 20.5 cm.

And the “Plant height, % of untreated control” value (spring rye [7]; 3.00 kg/ha)?
Its value is 71.9%.

For `Clc1ccc(NC2C(Cl)C3CC2C2N=NC32)cc1` (centres unmarked) [drawing 423], which Plant height (spring rye [7]; 0.75 kg/ha) is on record?
The Plant height was 25.5 cm.

And the “Plant height, % of untreated control” value (spring rye [7]; 0.75 kg/ha)?
Its value is 89.5%.

What about the Plant height (spring rye [7]; 1.50 kg/ha) of the same molecule?
Its Plant height is 24.5 cm.

What about the “Plant height, % of untreated control” value (spring rye [7]; 1.50 kg/ha) of the same molecule?
Its value is 86.0%.

What about the Plant height (spring rye [7]; 3.00 kg/ha) of the same molecule?
Its Plant height is 24.5 cm.

What about the “Plant height, % of untreated control” value (spring rye [7]; 3.00 kg/ha) of the same molecule?
The value was 86.0%.
